Consider five compounds from paper PMC5207512, “Inhibition of Helicobacter pylori and Its Associated Urease by Palmatine: Investigation on the Potential Mechanism” (PLoS ONE, 2017).

Data set [1] has as its target T1, H. pylori urease (HPU) (Helicobacter pylori, UniProt P69996).
T1 construct: HPU was prepared as previously described; made in house
Nature of the data set: biochemical. It counts as biochemical. Conditions: for Urease activity: Fig 6A HPU. On the procedure:
(§1) The reactivation of Pal-inactivated urease was investigated by DTT application. The preincubation mixture consisted of 0.25 mg/mL HPU or JBU and 0.5 mM Pal in 20 mM HEPES buffer (pH 7.5). Then the mixture was further incubated with 1.25 mM DTT after 20 min. The enzymatic activity of urease was determined before and after the addition of DTT. After a while, aliquots were withdrawn and the urease residual activity was determined. The experiments were repeated three times.

For data set [2], the target named is T2, jack bean urease (JBU) (Canavalia ensiformis, UniProt P07374).
T2 construct: Urease from jack bean (Canavalia ensiformis, JBU); purchased Sigma-Aldrich (St Louis, MO, USA) type III (catalogue number not given)
Nature of the data set: biochemical. It counts as biochemical. Conditions: for Urease activity: Fig 6B JBU. On the procedure: as §1

In data set [3] the target is T1, H. pylori urease (HPU). Description: biochemical. It counts as biochemical. Conditions: Fig 5A HPU, thiols 1.25 mM, Pal 0.5 mM, 20+20 min. On the procedure: (§2) The reaction mixture consisted of 0.25 mg/mL HPU or JBU, 0.5 mM Pal (for both HPU and JBU), and 1.25 mM thiols (DTT, GSH, or L-cys) in 20 mM HEPES buffer (pH 7.5). The components of the incubation mixture were mixed according to three procedures: (1) Urease was added to the mixture after a 20-min co-incubation of Pal with thiol. (2) Pal was added to the mixture after a 20-min co-incubation of urease with thiol. (3) Thiols were added to the mixture after a 20-min co-incubation of urease with Pal. The incubation mixture containing all components was incubated for further 20 min and the activity of urease was determined. The experiments were triply performed.

The target of data set [4] is T2, jack bean urease (JBU). Description: biochemical. It counts as biochemical. Conditions: Fig 5B JBU, thiols 1.25 mM, Pal 0.5 mM, 20+20 min. On the procedure:
as §2

The target of data set [5] is T1, H. pylori urease (HPU). Nature of the data set: biochemical. The conditions noted are these: Fig 4A HPU, Pal 0.5 mM, thiols 1.25 mM, replicates. On the procedure: (§3) For the protection with thiols-containing compounds, the mixture consisting of 0.25 mg/mL urease (HPU or JBU), 0.5 mM Pal (for both HPU and JBU) and 1.25 mM thiols (DTT, GSH and L-cys) was incubated for 5, 10, 20, and 40 min at 37°C, respectively. The control sample instead of the protectors contained a proper volume of respective buffer.

Data set [6] concerns the target T2, jack bean urease (JBU). Nature of the data set: biochemical. Conditions: Fig 4B JBU, Pal 0.5 mM, thiols 1.25 mM, replicates. On the procedure:
as §3

For data set [7], the system named is HPU. More on the design: method as in PMID 26669678. Conditions: cited from earlier work.
Data set [8] concerns JBU. Further details: method as in PMID 26669678. Conditions: cited from earlier work.
Details of data set [9]: method as in PMID 23159469. Conditions: among berberine, coptisine, palmatine and epiberberine; in vitro and in vivo assays; cited from earlier work.
Data set [10] has as its target T1, H. pylori urease (HPU). Nature of the data set: biochemical. It counts as biochemical. Conditions: Fig 4C HPU; BA or NaF 5 mM preincubated 20 min, Pal 0.5 mM 20 min. On the procedure:
(§4) For the protection with inorganic compounds (BA and NaF), 0.25 mg/mL urease (HPU or JBU) was preincubated with 5 mM BA or 5 mM NaF for 20 min. Following preincubation, each sample of the protected urease was incubated with 0.5 mM Pal for 20 min. The samples containing a proper volume of respective buffer instead of Pal served as comparison with the abovementioned systems. The experiments were triply performed.

The target of data set [11] is T2, jack bean urease (JBU). Description: biochemical. It counts as biochemical. Conditions: Fig 4D JBU; BA or NaF 5 mM preincubated 20 min, Pal 0.5 mM 20 min. On the procedure: as §4
In data set [12] the test system is H. pylori NCTC 26695. Nature of the data set: MIC by agar dilution method. Type of data set: cell-based. Conditions: Helicobacter pylori. On the procedure:
(§5) A total of four H. pylori strains were studied, including three reference strains ATCC 43504, NCTC 26695 and SS1 gifted from Professor Richard Ferrero, Monash University, Australia, and one clinical isolate ICDC 111001 obtained from Professor Zhang Jianzhong, Chinese Center of Disease Control and Prevention. […] The MICs of Pal against the four H. pylori strains were evaluated by using agar dilution method. […] H. pylori strains were harvested and resuspended in PBS (1.0–2.0 McFarland were defined based on the strain properties). […] After 72 h, the MIC values were determined as the lowest concentration at which there was no strain growth judged by visual examination. Metronidazole was used as the positive control. The experiments were evaluated under two different pH (7.4 and 5.3) conditions and repeated twice.
A general note: In agar dilution, organisms are placed on agar that contains the substance at set levels.

The subject of data set [13] is H. pylori ATCC 43504. Description: MIC by agar dilution method. Type of data set: cell-based. The conditions noted are these: Helicobacter pylori. On the procedure:
as §5

Data set [14] deals with H. pylori SS1. Nature of the data set: MIC by agar dilution method. It counts as cell-based. Conditions: Helicobacter pylori. On the procedure: as §5
Data set [15] has as its system H. pylori ICDC 111001 (clinical isolate). Nature of the data set: MIC by agar dilution method. The conditions noted are these: Helicobacter pylori. It counts as cell-based. On the procedure:
as §5

Setting [16] is: 1.25 mM DTT, control of reactivation assay.
Where [17] appears, read: incubation time 5 min, Pal 0.5 mM, DTT 1.25 mM.
The mark [18] stands for this setting: incubation time 10 min, Pal 0.5 mM, DTT 1.25 mM.
The mark [19] stands for this setting: incubation time 15 min, Pal 0.5 mM, DTT 1.25 mM.
The mark [20] stands for this setting: incubation time 20 min, Pal 0.5 mM, DTT 1.25 mM.
Setting [21] is: incubation time 120 min, DTT added post 20 min.

≈ marks a conversion by molar mass, not a printed value. Where “and” joins values, the source holds several entries; their conditions need not be identical. Equal entries are not always repeated. Where only a bound is given, the exact number is not on record here.

T1 sequence (P14916 whole entry): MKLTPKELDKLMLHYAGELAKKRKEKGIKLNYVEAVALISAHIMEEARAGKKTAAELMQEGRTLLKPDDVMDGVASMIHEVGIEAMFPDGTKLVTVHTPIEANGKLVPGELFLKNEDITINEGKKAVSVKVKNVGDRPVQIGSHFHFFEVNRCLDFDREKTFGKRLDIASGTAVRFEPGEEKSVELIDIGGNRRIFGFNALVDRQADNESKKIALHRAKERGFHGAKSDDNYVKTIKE
T1 sequence (P69996 whole entry): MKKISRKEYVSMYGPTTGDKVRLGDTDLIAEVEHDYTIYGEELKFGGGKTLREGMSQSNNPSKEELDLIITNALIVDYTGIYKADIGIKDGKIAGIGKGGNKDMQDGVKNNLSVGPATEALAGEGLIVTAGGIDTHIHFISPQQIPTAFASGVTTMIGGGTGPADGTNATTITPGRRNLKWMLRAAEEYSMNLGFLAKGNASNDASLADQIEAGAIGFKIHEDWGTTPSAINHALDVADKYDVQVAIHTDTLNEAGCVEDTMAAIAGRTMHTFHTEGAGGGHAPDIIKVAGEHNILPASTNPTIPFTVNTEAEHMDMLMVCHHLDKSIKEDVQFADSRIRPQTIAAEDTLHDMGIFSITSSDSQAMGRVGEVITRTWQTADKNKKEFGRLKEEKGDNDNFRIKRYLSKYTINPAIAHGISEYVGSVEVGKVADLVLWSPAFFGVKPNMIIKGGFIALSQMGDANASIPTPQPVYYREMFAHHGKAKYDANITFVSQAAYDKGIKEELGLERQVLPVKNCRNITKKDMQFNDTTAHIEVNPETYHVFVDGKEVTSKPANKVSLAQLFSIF
T2 sequence (P07374 whole entry, looked up): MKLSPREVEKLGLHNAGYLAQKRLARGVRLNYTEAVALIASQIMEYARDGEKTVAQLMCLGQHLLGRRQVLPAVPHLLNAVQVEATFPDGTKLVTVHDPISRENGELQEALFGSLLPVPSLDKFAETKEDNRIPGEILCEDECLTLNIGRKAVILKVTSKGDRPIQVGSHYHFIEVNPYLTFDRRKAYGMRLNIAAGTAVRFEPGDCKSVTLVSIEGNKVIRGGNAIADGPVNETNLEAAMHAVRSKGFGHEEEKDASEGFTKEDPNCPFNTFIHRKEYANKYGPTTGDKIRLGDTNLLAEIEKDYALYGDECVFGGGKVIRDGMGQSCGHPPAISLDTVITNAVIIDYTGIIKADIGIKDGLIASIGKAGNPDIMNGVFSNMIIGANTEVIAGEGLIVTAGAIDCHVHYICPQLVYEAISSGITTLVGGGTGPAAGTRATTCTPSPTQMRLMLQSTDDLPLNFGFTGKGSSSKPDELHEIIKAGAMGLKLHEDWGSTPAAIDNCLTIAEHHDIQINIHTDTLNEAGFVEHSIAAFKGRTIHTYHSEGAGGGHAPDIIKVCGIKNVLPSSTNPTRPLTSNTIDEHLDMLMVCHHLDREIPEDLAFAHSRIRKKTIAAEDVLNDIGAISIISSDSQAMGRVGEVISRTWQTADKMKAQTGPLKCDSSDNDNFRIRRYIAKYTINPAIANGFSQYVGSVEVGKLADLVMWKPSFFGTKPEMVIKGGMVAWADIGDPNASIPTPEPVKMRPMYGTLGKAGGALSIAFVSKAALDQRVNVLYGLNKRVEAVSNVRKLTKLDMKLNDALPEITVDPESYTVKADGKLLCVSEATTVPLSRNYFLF

On to `O[C@@H](CS)[C@@H](O)CS` (racemic) [DTT, dithiothreithol], for which, in data set [1] (setting [16]), the “HPU activity with DTT without Pal” value was “ca. 100%”. The Urease activity in [1] (setting [17]) is 95.491% and 88.7241% and 81.9292%; in data set [1] (setting [18]) it was 99.0165% and 99.0712% and 98.1423%; in [1] (setting [19]), 99.1346% and 97.2572% and 95.4326%; in data set [1] (setting [20]), 97.9325% and 92.9515% and 87.6438%; in [1] (incubation time 40 min, DTT added post 20 min), 92.9813% and 91.5048% and 89.9013%; in data set [1] (incubation time 60 min), 98.0126% and 92.5129% and 87.7924%. For the same compound, the Urease activity was 91.4647% and 89.1159% and 85.7645% in data set [1] (incubation time 90 min); 96.0166% and 88.9974% and 82.2782% in data set [1] (setting [21]); 121.742% and 114.981% and 108.343% in [2] (setting [17]); 110.236% and 112.928% and 115.246% in data set [2] (setting [18]); 113.236% and 116.183% and 119.514% in data set [2] (setting [19]); 121.141% and 121.265% and 120.209% in data set [2] (setting [20]). For the same compound, the Urease activity in data set [2] (incubation time 25 min) is 120.019% and 120.291% and 121.459%; in data set [2] (incubation time 40 min), 107.983% and 105.801% and 103.225%; in data set [2] (incubation time 60 min) it was 111.088% and 107.798% and 104.326%; in data set [2] (incubation time 90 min), 107.125% and 104.437% and 101.122%; in data set [2] (setting [21]), 112.893% and 110.524% and 108.243%. Further, the “JBU activity with DTT without Pal” value in data set [2] (setting [16]) is given as “ca. 100%”. Moreover, the “Residual urease activity (percent of control)” value in data set [3] (order (Protector+Pal)+urease) was 93.1647% and 102.135% and 96.7756%; in data set [3] (order (urease+Pal)+Protector) it was 108.215% and 111.632% and 112.117%; in [3] (order (urease+Protector)+Pal) it was 93.9563% and 102.92% and 98.1268%; in data set [4] (order (Protector+Pal)+urease), 164.505% and 163.42% and 167.948%; in data set [4] (order (urease+Pal)+Protector) it was 156.562% and 141.035% and 115.717%; in data set [4] (order (urease+Protector)+Pal), 175.198% and 170.348% and 183.958%. For the same compound, the “Residual urease activity (percent of control)” value was 81.4793% and 82.3893% and 84.6876% in data set [5] (5 min incubation); 90.4823% and 88.7843% and 92.6863% in data set [5] (10 min incubation); 93.6879% and 92.2701% and 94.7893% in data set [5] (20 min incubation); 98.9725% and 95.7934% and 96.4654% in data set [5] (40 min incubation); 93.6533% and 90.8565% and 95.5784% in data set [6] (5 min incubation); 106.756% and 109.689% and 104.897% in data set [6] (10 min incubation). Also, the “Residual urease activity (percent of control)” value in data set [6] (20 min incubation) is 115.579% and 114.01% and 114.79%; in data set [6] (40 min incubation), 142.945% and 126.676% and 135.643%.

On to `COc1ccc2cc3[n+](cc2c1OC)CCc1cc2c(cc1-3)OCO2` [berberine], for which the IC50 (usually the midpoint of a concentration-inhibition curve) in [7] is 10.2 ± 1.1 mM; in data set [8], above 13 mM. In addition, in [9], the toxicity result was “relatively more toxic”.

On to `OB(O)O` [BA, boric acid], for which the “Residual urease activity (percent of control)” value in data set [10] was 98.6% and 98.6098% and 99.1614% and 98.0689%; in data set [11], 86.6% and 87.7694% and 84.1052% and 87.7801%.

For `Cc1ncc([N+](=O)[O-])n1CCO` [Met, Metronidazole], the MIC (as a rule, the lowest concentration found to suppress growth) worked out at 2 µg/mL (≈ 11.7 µM) in data set [12] (NCTC26695, pH 5.3, 72 h); 2 µg/mL (≈ 11.7 µM) in [12] (NCTC26695, pH 7.4, 72 h); 0.5 µg/mL (≈ 2.92 µM) in data set [13] (ATCC43504, pH 5.3, 72 h); 0.5 µg/mL (≈ 2.92 µM) in data set [13] (ATCC43504, pH 7.4, 72 h); 0.5 µg/mL (≈ 2.92 µM) in [14] (pH 5.3, 72 h); 0.5 µg/mL (≈ 2.92 µM) in data set [14] (pH 7.4, 72 h). The MIC turned out to be 2 µg/mL (≈ 11.7 µM) in data set [15] (pH 5.3, 72 h) and 2 µg/mL (≈ 11.7 µM) in data set [15] (pH 7.4, 72 h).

For the compound `[F-].[Na+]` [NaF, sodium fluoride], the “Residual urease activity (percent of control)” value in data set [10] is 54.6% and 54.7779% and 54.0024% and 55.0707%; in data set [11], 42.9% and 43.7771% and 43.724% and 41.2392%.
